{"source": "patent US20100286173A1", "about": "(priority 2008, published 2010)", "data": [{"experiment": "Measurement of logP values by HPLC on reversed phase columns (EEC directive 79/831 Annex V.A8)", "type": "physicochemical", "conditions": "pH 2.7, 0.1% formic acid in water / acetonitrile gradient 10% to 95%", "values": [{"smiles": "CCCC(=O)Nc1nc(CON=C(c2ccc(F)c(Oc3ccccc3)c2)c2nnnn2C)cs1", "note": "[Example 146]", "Log p": 3.35}, {"smiles": "Cn1nnnc1C(=NOCc1csc(NC(=O)C(C)(C)C)n1)c1ccc(F)c(Oc2ccccc2)c1", "note": "[Example 147]", "Log p": 4.05}, {"smiles": "Cn1nnnc1C(=NOCc1csc(NC(=O)C2CC2)n1)c1ccc(F)c(Oc2ccccc2)c1", "note": "[Example 148]", "Log p": 3.48}, {"smiles": "Cn1nnnc1C(=NOCc1csc(N)n1)c1ccc(F)c(Oc2ccccc2)c1", "note": "[Example 149]", "Log p": 2.25}, {"smiles": "Cc1cc(C(=NOCc2csc(NCCC3CCCCC3)n2)c2nnnn2C)ccc1F", "note": "[Example 151]", "Log p": 4.36}, {"smiles": "CCCCC#Cc1nc(CON=C(c2ccc(F)c(C)c2)c2nnnn2C)cs1", "note": "[Example 152]", "Log p": 4.78}, {"smiles": "Cc1cc(C(=NOCc2csc(C#CCCCc3ccccc3)n2)c2nnnn2C)ccc1F", "note": "[Example 155]", "Log p": 5.32}, {"smiles": "CCC#Cc1nc(CON=C(c2ccc(F)c(C)c2)c2nnnn2C)cs1", "note": "[Example 156]", "Log p": 4.09}, {"smiles": "Cc1cc(C(=NOCc2cccc(N)n2)c2nnnn2C)ccc1F", "note": "[Example 159]", "Log p": 1.50}, {"smiles": "Cc1ccc(C(=NOCc2cccc(N)n2)c2nnnn2C)cc1C(F)(F)F", "note": "[Example 162]", "Log p": 2.10}, {"smiles": "Cc1cc(C(=NOCc2csc(N)n2)c2nnnn2C)ccc1F", "note": "[Example 163]", "Log p": 1.75}]}, {"experiment": "Measurement of logP values by HPLC on reversed phase columns (EEC directive 79/831 Annex V.A8)", "type": "physicochemical", "conditions": "reversed phase HPLC column, pH 2.7, 0.1% formic acid in water / acetonitrile gradient 10% to 95%, read-out: Log p", "values": [{"smiles": "Cn1nnnc1C(=NOCc1cccc(N)n1)c1cccc(C(F)(F)F)c1F", "note": "[Example 143, 6-{[({[2-fluoro-3-(trifluoromethyl)phenyl](1-methyl-1H-tetrazol-5-yl)methylidene}amino)oxy]methyl}pyridin-2-amine]", "chromatographic logP": 1.75}, {"smiles": "Cc1ccc(C(=NOCc2csc(N)n2)c2nnnn2C)cc1C(F)(F)F", "note": "[Example 145, 4-{[({(1-methyl-1H-tetrazol-5-yl)[4-methyl-3-(trifluoromethyl)phenyl]methylidene}amino)oxy]methyl}-1,3-thiazol-2-amine]", "chromatographic logP": 2.22}, {"smiles": "Cc1cc(C(=NOCc2csc(NC(=O)OC(C)(C)C)n2)c2nnnn2C)ccc1F", "note": "[Example 150, tert-butyl {4-[({[(4-fluoro-3-methylphenyl)(1-methyl-1H-tetrazol-5-yl)methylidene]amino}oxy)methyl]-1,3-thiazol-2-yl}carbamate]", "chromatographic logP": 3.89}, {"smiles": "CCCC#Cc1nc(CON=C(c2ccc(F)c(C)c2)c2nnnn2C)cs1", "note": "[Example 153, 1-(4-fluoro-3-methylphenyl)-1-(1-methyl-1H-tetrazol-5-yl)-N-{[2-(pent-1-yn-1-yl)-1,3-thiazol-4-yl]methoxy}methanimine]", "chromatographic logP": 4.36}, {"smiles": "Cc1cc(C(=NOCc2csc(NCC3CC3)n2)c2nnnn2C)ccc1F", "note": "[Example 154, N-(cyclopropylmethyl)-4-[({[(4-fluoro-3-methylphenyl)(1-methyl-1H-tetrazol-5-yl)methylidene]amino}oxy)methyl]-1,3-thiazol-2-amine]", "chromatographic logP": 2.71}, {"smiles": "Cc1cc(C(=NOCc2csc(Br)n2)c2nnnn2C)ccc1F", "note": "[Example 161, N-[(2-bromo-1,3-thiazol-4-yl)methoxy]-1-(4-fluoro-3-methylphenyl)-1-(1-methyl-1H-tetrazol-5-yl)methanimine]", "chromatographic logP": 3.57}]}]}
